Reference: US20160122320A1, “USEFUL COMBINATIONS OF MONOBACTAM ANTIBIOTICS WITH BETA-LACTAMASE INHIBITORS” (Basilea Pharmaceutica AG, priority 2005, published 2016)
Structures can show the parent of a compound that is named as a salt.

How the values were obtained:
Test in all cases: MIC, NCCLS broth microdilution
Type in all cases: cell-based
Enterobacter cloacae P99 = conditions: for MIC of antibiotic at fixed inhibitor concentration (4 mg/L): MIC of antibiotic compound 1 with the labelled bridged monobactam of formula II and clavulanate, 4 mg/L each; for MIC of antibiotic: antibiotic alone, no inhibitor; for MIC of antibiotic at fixed inhibitor concentration of 4 mg/L: with 102 and clavulanate
Serratia marcescens S6 = conditions: for MIC of antibiotic at fixed inhibitor concentration (4 mg/L): MIC of antibiotic compound 1 with the labelled bridged monobactam of formula II and clavulanate, 4 mg/L each; for MIC of antibiotic: antibiotic alone, no inhibitor; for MIC of antibiotic at fixed inhibitor concentration of 4 mg/L: with 102 and clavulanate
[1] = system: Klebsiella pneumoniae CF104; conditions: for MIC of antibiotic at fixed inhibitor concentration (4 mg/L): MIC of antibiotic compound 1 with the labelled bridged monobactam of formula II and clavulanate, 4 mg/L each; for MIC of antibiotic: antibiotic alone, no inhibitor; for MIC of antibiotic at fixed inhibitor concentration of 4 mg/L: with 102 and clavulanate
[2] = system: Pseudomonas aeruginosa 1973E; conditions: for MIC of antibiotic at fixed inhibitor concentration (4 mg/L): MIC of antibiotic compound 1 with the labelled bridged monobactam of formula II and clavulanate, 4 mg/L each; for MIC of antibiotic: antibiotic alone, no inhibitor; for MIC of antibiotic at fixed inhibitor concentration of 4 mg/L: with 102 and clavulanate
Summary of the method: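 MIC read by eye as the lowest concentration giving no visible growth after overnight incubation (30° C. or 37° C.), following NCCLS M7-A5 microdilution with ≤1% final DMSO. For combinations, partner compounds (formula II, III-XIII) were fixed at 4 μg/mL each while formula I compounds were titrated.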

[3] = system: Pseudomonas aeruginosa MK1184; conditions: for MIC of antibiotic at fixed inhibitor concentration (4 mg/L): MIC of antibiotic compound 1 with the labelled bridged monobactam of formula II and clavulanate, 4 mg/L each; for MIC of antibiotic: antibiotic alone, no inhibitor; for MIC of antibiotic at fixed inhibitor concentration of 4 mg/L: with 102 and clavulanate
[4] = system: Stenotrophomonas malthophilia 1AC736; conditions: for MIC of antibiotic at fixed inhibitor concentration (4 mg/L): Stenotrophomonas malthophilia 1AC736, MIC of antibiotic compound 1 with the labelled bridged monobactam of formula II and clavulanate, 4 mg/L each; for MIC of antibiotic / MIC of antibiotic at fixed inhibitor concentration of 4 mg/L: Stenotrophomonas maltophilia 1AC736; for MIC of antibiotic: antibiotic alone, no inhibitor; for MIC of antibiotic at fixed inhibitor concentration of 4 mg/L: with 102 and clavulanate
Acinetobacter sp. J2 = conditions: for MIC of antibiotic at fixed inhibitor concentration (4 mg/L): Acinetobacter sp. J2, MIC of antibiotic compound 1 with the labelled bridged monobactam of formula II and clavulanate, 4 mg/L each; for MIC of antibiotic / MIC of antibiotic at fixed inhibitor concentration of 4 mg/L: Acinetobacter baumannii J2; for MIC of antibiotic: antibiotic alone, no inhibitor; for MIC of antibiotic at fixed inhibitor concentration of 4 mg/L: with 102 and clavulanate

Row | MIC of antibiotic at fixed inhibitor concentration (4 mg/L) (Enterobacter cloacae P99) [µg/mL] | MIC of antibiotic at fixed inhibitor concentration (4 mg/L) (Serratia marcescens S6) [µg/mL] | MIC of antibiotic at fixed inhibitor concentration (4 mg/L) [1] [µg/mL] | MIC of antibiotic at fixed inhibitor concentration (4 mg/L) [2] [µg/mL] | MIC of antibiotic at fixed inhibitor concentration (4 mg/L) [3] [µg/mL] | MIC of antibiotic at fixed inhibitor concentration (4 mg/L) [4] [µg/mL] | MIC of antibiotic at fixed inhibitor concentration (4 mg/L) (Acinetobacter sp. J2) [µg/mL] | SMILES | other results
1 | 8 | 4 | 0.25 | 4 | >32 | 0.125 | 4 | Cn1nnnc1SCC(=O)N1CC[C@@H]2[C@H]1C(=O)N2S(=O)(=O)[O-].[Na+] [Compound 206] | –
2 | 16 | 0.25 | 1 | 4 | >32 | 0.125 | 8 | O=C(Nc1ccccc1)N1CC[C@@H]2[C@H]1C(=O)N2S(=O)(=O)[O-].[Na+] [Compound 301] | –
3 | 4 | 0.5 | 2 | 4 | 16 | 0.125 | >32 | CN(C)CCNC(=O)c1ccc(NC(=O)N2CC[C@@H]3[C@H]2C(=O)N3S(=O)(=O)[O-])cc1.[Na+] [Compound 310, Sodium(1S,5R)-2-[N-(4-{N-[2-(dimethylamino)ethyl]carbamoyl}phenyl)carbamoyl]-7-oxo-2,6-diazabicyclo[3.2.0]heptane-6-sulfonate] | –
4 | 32 | 0.25 | 2 | 4 | >32 | 0.125 | >32 | O=C(NCc1ccccc1)N1CC[C@@H]2[C@H]1C(=O)N2S(=O)(=O)[O-].[Na+] [Compound 302] | –
5 | 32 | 0.25 | 1 | 4 | >32 | 0.125 | >32 | COc1ccc(NC(=O)N2CC[C@@H]3[C@H]2C(=O)N3S(=O)(=O)[O-])cc1.[Na+] [Compound 304] | –
6 | 16 | 0.125 | 0.5 | 8 | >32 | 0.125 | 4 | Nc1nc(CC(=O)N2CC[C@@H]3[C@H]2C(=O)N3S(=O)(=O)O)cs1 [Compound 401] | –

Continued, compound first:

Row | SMILES | MIC of antibiotic at fixed inhibitor concentration (4 mg/L) (Enterobacter cloacae P99) [µg/mL] | MIC of antibiotic at fixed inhibitor concentration (4 mg/L) (Serratia marcescens S6) [µg/mL] | MIC of antibiotic at fixed inhibitor concentration (4 mg/L) [1] [µg/mL] | MIC of antibiotic at fixed inhibitor concentration (4 mg/L) [2] [µg/mL] | MIC of antibiotic at fixed inhibitor concentration (4 mg/L) [3] [µg/mL] | MIC of antibiotic at fixed inhibitor concentration (4 mg/L) [4] [µg/mL] | MIC of antibiotic at fixed inhibitor concentration (4 mg/L) (Acinetobacter sp. J2) [µg/mL] | other results
7 | CCOC(=O)Cc1ccc[n+](CC(=O)N2CC[C@@H]3[C@H]2C(=O)N3S(=O)(=O)[O-])c1 [Compound 119, (1S,5R)-2-(2-{3-[(ethoxycarbonyl)methyl]pyridinium}acetyl)-7-oxo-2,6-diazabicyclo[3.2.0]heptane-6-sulfonate, inner salt] | >32 | 0.25 | 0.125 | 4 | 32 | 0.125 | >32 | –
8 | Nc1nc(C(=NOCc2cc(=O)c(O)cn2O)C(=O)NC2CN(S(=O)(=O)O)C2=O)cs1 (stereo not drawn) [Compound 9] | – | – | – | – | – | – | – | MIC of antibiotic (Enterobacter cloacae P99): >32 µg/mL; MIC of antibiotic at fixed inhibitor concentration of 4 mg/L (Enterobacter cloacae P99): 32 µg/mL; MIC of antibiotic (Serratia marcescens S6): 16 µg/mL; MIC of antibiotic at fixed inhibitor concentration of 4 mg/L (Serratia marcescens S6): 1 µg/mL; MIC of antibiotic [1]: >32 µg/mL; MIC of antibiotic at fixed inhibitor concentration of 4 mg/L [1]: 0.5 µg/mL; MIC of antibiotic [2]: 8 µg/mL; MIC of antibiotic at fixed inhibitor concentration of 4 mg/L [2]: 8 µg/mL; MIC of antibiotic [3]: >32 µg/mL; MIC of antibiotic at fixed inhibitor concentration of 4 mg/L [3]: 4 µg/mL; MIC of antibiotic [4]: 0.5 µg/mL; MIC of antibiotic at fixed inhibitor concentration of 4 mg/L [4]: 0.25 µg/mL; MIC of antibiotic (Acinetobacter sp. J2): >32 µg/mL; MIC of antibiotic at fixed inhibitor concentration of 4 mg/L (Acinetobacter sp. J2): >32 µg/mL
9 | O=C(C[n+]1ccc2ccccc2c1)N1CC[C@@H]2[C@H]1C(=O)N2S(=O)(=O)[O-] [Compound 104, (1S,5R)-2-(2-(2-isoquinolinium)acetyl)-7-oxo-2,6-diazabicyclo[3.2.0]heptane-6-sulfonate, inner salt] | 32 | 2 | 0.5 | 4 | 32 | 0.125 | >32 | –
10 | CC1C(NC(=O)C(=NOCc2cc(=O)c(O)cn2O)c2noc(N)n2)C(=O)N1S(=O)(=O)O (stereo not drawn) [Compound 16] | – | – | – | – | – | – | – | MIC of antibiotic (Enterobacter cloacae P99): >32 µg/mL; MIC of antibiotic at fixed inhibitor concentration of 4 mg/L (Enterobacter cloacae P99): >32 µg/mL; MIC of antibiotic (Serratia marcescens S6): >32 µg/mL; MIC of antibiotic at fixed inhibitor concentration of 4 mg/L (Serratia marcescens S6): >32 µg/mL; MIC of antibiotic [1]: >32 µg/mL; MIC of antibiotic at fixed inhibitor concentration of 4 mg/L [1]: 32 µg/mL; MIC of antibiotic [2]: >32 µg/mL; MIC of antibiotic at fixed inhibitor concentration of 4 mg/L [2]: 16 µg/mL; MIC of antibiotic [3]: >32 µg/mL; MIC of antibiotic at fixed inhibitor concentration of 4 mg/L [3]: 16 µg/mL; MIC of antibiotic [4]: >32 µg/mL; MIC of antibiotic at fixed inhibitor concentration of 4 mg/L [4]: 2 µg/mL; MIC of antibiotic (Acinetobacter sp. J2): >32 µg/mL; MIC of antibiotic at fixed inhibitor concentration of 4 mg/L (Acinetobacter sp. J2): 16 µg/mL
11 | COC(=O)c1ccc[n+](CC(=O)N2CC[C@@H]3[C@H]2C(=O)N3S(=O)(=O)[O-])c1C [Compound 115, (1S,5R)-2-{2-[3-(methoxycarbonyl)-2-methylpyridinium]acetyl}-7-oxo-2,6-diazabicyclo[3.2.0]heptane-6-sulfonate, inner salt] | 32 | 0.25 | 0.125 | 4 | 16 | 0.125 | >32 | –
12 | COn1cc(O)c(=O)cc1CON=C(C(=O)N[C@@H]1C(=O)N(S(=O)(=O)O)[C@H]1C)c1csc(N)n1 [Compound 5, (3S,4S)-3-{2-(2-amino(1,3-thiazol-4-yl))-3-[(5-hydroxy-1-methoxy-4-oxo(2-hydropyridyl))methoxy]-3-azaprop-2-enoylamino}-4-methyl-2-oxoazetidinesulfonic acid] | – | – | – | – | – | – | – | MIC of antibiotic (Enterobacter cloacae P99): 32 µg/mL; MIC of antibiotic at fixed inhibitor concentration of 4 mg/L (Enterobacter cloacae P99): 8 µg/mL; MIC of antibiotic (Serratia marcescens S6): 8 µg/mL; MIC of antibiotic at fixed inhibitor concentration of 4 mg/L (Serratia marcescens S6): 1 µg/mL; MIC of antibiotic [1]: >32 µg/mL; MIC of antibiotic at fixed inhibitor concentration of 4 mg/L [1]: 8 µg/mL; MIC of antibiotic [2]: >32 µg/mL; MIC of antibiotic at fixed inhibitor concentration of 4 mg/L [2]: >32 µg/mL; MIC of antibiotic [3]: >32 µg/mL; MIC of antibiotic at fixed inhibitor concentration of 4 mg/L [3]: >32 µg/mL; MIC of antibiotic [4]: 16 µg/mL; MIC of antibiotic at fixed inhibitor concentration of 4 mg/L [4]: 4 µg/mL; MIC of antibiotic (Acinetobacter sp. J2): >32 µg/mL; MIC of antibiotic at fixed inhibitor concentration of 4 mg/L (Acinetobacter sp. J2): 32 µg/mL
